Experimental data: publication PMC10709440, “High-throughput ligand profile characterization in novel cell lines expressing seven heterologous insect olfactory receptors for the detection of volatile plant biomarkers” (Scientific Reports, 2023)
“And” between values parts separate entries of the source, which are not always exact repeats. Identical values can stand only once. Like-named read-outs stand apart in the source and are kept apart here.

Columns and labels:
Drosophila OR49b = molecular target: T1, Drosophila OR49b (Drosophila melanogaster, UniProt Q9V6H2); assay: cell-based; settings: for Average response: OR49b cell line, mean of biological replicates
T1 construct: expressed in transfected cells
T1 sequence (Q9V6H2 1-375): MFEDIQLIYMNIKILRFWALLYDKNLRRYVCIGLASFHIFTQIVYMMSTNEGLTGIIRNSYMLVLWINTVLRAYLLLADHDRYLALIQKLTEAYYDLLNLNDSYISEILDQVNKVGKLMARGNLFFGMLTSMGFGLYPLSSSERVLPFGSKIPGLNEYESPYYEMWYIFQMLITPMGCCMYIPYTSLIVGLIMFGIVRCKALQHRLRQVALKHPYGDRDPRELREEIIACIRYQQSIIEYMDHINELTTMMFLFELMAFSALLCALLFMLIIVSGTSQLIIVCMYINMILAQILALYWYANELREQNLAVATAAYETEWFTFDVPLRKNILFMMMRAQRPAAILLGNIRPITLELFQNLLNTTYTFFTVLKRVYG
T1 sequence (Q9VNB5 1-486 partner): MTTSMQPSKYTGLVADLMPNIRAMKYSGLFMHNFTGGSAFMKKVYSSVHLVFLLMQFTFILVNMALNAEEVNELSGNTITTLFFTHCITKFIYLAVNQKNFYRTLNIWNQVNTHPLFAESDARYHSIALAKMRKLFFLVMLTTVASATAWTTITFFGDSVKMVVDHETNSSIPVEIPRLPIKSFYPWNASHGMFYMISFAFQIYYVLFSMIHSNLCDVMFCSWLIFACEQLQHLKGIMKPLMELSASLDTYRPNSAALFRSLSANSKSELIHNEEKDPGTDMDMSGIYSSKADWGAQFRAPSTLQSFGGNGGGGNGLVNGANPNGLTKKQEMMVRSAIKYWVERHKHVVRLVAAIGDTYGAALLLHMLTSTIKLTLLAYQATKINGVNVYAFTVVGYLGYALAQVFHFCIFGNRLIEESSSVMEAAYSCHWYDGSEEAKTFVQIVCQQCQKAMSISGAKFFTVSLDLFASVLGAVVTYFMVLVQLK
Summary of the method: (§1)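 HEK293 lines stably expressing each Drosophila OR with GCaMP6, doxycycline-induced (1 μg/mL) 48 or 72 h. Fluorescence recorded 5 s baseline then 30 s after VOC injection at pH 7.3; ΔF=(FMAX−F0)/F0, normalized to 50 µM VUAA1 response per line, triplicate wells averaged; concentration series 0.01–100 μM.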

Drosophila OR13a = molecular target: T2, Drosophila OR13a (Drosophila melanogaster, UniProt Q9VXL0); assay: Calcium ion fluorescence (GCaMP6) assay, OR13a stable HEK293 cell line; type: cell-based
T2 construct: expressed in transfected cells
T2 sequence (Q9VXL0 1-418): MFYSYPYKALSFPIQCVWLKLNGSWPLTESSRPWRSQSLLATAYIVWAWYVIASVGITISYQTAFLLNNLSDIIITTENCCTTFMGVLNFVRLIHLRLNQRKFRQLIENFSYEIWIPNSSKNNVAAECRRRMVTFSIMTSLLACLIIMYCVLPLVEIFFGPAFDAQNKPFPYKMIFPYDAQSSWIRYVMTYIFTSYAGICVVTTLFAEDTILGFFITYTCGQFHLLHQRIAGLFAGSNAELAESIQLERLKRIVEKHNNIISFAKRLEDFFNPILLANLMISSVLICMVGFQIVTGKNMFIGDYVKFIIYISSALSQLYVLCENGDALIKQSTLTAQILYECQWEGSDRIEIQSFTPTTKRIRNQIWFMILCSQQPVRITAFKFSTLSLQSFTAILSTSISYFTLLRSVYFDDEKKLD
T2 sequence (Q9VNB5 1-486 partner): T1 sequence (Q9VNB5 1-486 partner)
Summary of the method: as §1

[1] = ligand concentration 1 (unit not given), threshold 0.05, below shown as 0
[2] = ligand concentration 10 (unit not given), threshold 0.05, below shown as 0
[3] = ligand concentration 100 (unit not given), threshold 0.05, below shown as 0

## C=CC(O)CCCCC (stereo not drawn) [1-octen-3-ol]
Drosophila OR49b
  DF norm AVERAGE OR49b: 0
Drosophila OR49b; HEK293, VOC concentration 1 μM, read-out: OR49b response (VUAA1-normalized response)
  activation at 1 µM: 0%
Drosophila OR49b; HEK293, VOC concentration 10 μM, read-out: OR49b response (VUAA1-normalized response)
  activation at 10 µM: 0%
Drosophila OR49b; HEK293, VOC concentration 100 μM, read-out: OR49b response (VUAA1-normalized response)
  activation at 100 µM: 0%
Drosophila OR49b; odorant cc. 1 µM
  Average response: 0.00
Drosophila OR49b; odorant cc. 10 µM
  Average response: 0.0174
Drosophila OR49b; odorant cc. 100 µM
  Average response: 0.0145
Drosophila OR13a; AVERAGE EC50, the 12th table, corresponds to average EC50, given with 95% confidence interval
  EC50: 1440 nM
Drosophila OR13a; EC50, AVERAGE of replicate fits, the 12th table, N 5
  EC50: 1440 nM
Drosophila OR13a; EC50, AVERAGE of replicate fits, the 12th table, arithmetic average, N 5
  EC50: 1630 nM
Drosophila OR13a; EC50, OR13a cell line, fitted Hill equation, Hill coefficient constrained to 1, maximal response max 1
  EC50: 1440 nM
Drosophila OR13a; EC50, fitted average curve, the 12th table, fit to the average curve, n 0.854956
  EC50: 1410 nM
Drosophila OR13a; EC50, fitted parameter per biological replicate, the 12th table, OR13a D-R 1-octen-3-ol, individual replicate fits, MIN 0, n 1
  EC50: 2370 nM and 2300 nM and 753 nM and 1970 nM and 761 nM
Drosophila OR13a; EC50, fitted parameter per biological replicate, the 12th table, individual replicate fits
  EC50: 2370 nM and 2300 nM and 753 nM and 1970 nM and 761 nM
Drosophila OR13a; HEK293, read-out: OR13a Average response (VUAA1-normalized), 1 μM VOC, 50 μM VUAA1 = 1, responses not exceeding 0.05 considered 0
  activation at 1 µM: 31%
Drosophila OR13a; HEK293, read-out: OR13a Average response (VUAA1-normalized), 10 μM VOC, 50 μM VUAA1 = 1, responses not exceeding 0.05 considered 0
  activation at 10 µM: 41%
Drosophila OR13a; HEK293, read-out: OR13a Average response (VUAA1-normalized), 100 μM VOC, 50 μM VUAA1 = 1, responses not exceeding 0.05 considered 0
  activation at 100 µM: 38%
Drosophila OR13a; HEK293, read-out: OR13a response (VUAA1-normalized response), VOC concentration 1 μM
  activation at 1 µM: 31%
Drosophila OR13a; HEK293, read-out: OR13a response (VUAA1-normalized response), VOC concentration 10 μM
  activation at 10 µM: 41%
Drosophila OR13a; HEK293, read-out: OR13a response (VUAA1-normalized response), VOC concentration 100 μM
  activation at 100 µM: 38%
Drosophila OR13a; HEK293, read-out: VUAA1 normalized MAX response
  Emax: 46%
Drosophila OR13a; concentration 1, normalized fluorescence change, values below 0.05 threshold given as 0
  DF norm AVERAGE OR13a: 0.3125
Drosophila OR13a; concentration 10, normalized fluorescence change, values below 0.05 threshold given as 0
  DF norm AVERAGE OR13a: 0.4133
Drosophila OR13a; concentration 100, normalized fluorescence change, values below 0.05 threshold given as 0
  DF norm AVERAGE OR13a: 0.3797
Drosophila OR13a; the 12th table, VOC concentration 0.15
  dose-response, response per biological replicate: 0 (2×) and 0.1313
Drosophila OR13a; the 12th table, VOC concentration 0.15, N 3
  dose-response, AVERAGE response: 0.04376
Drosophila OR13a; the 12th table, VOC concentration 0.3
  dose-response, response per biological replicate: 0 (3×) and 0.1249 and 0.1272
Drosophila OR13a; the 12th table, VOC concentration 0.3, N 5
  dose-response, AVERAGE response: 0.0504
Drosophila OR13a; the 12th table, VOC concentration 0.6
  dose-response, response per biological replicate: 0 (2×) and 0.1801 and 0.08156 and 0.213
Drosophila OR13a; the 12th table, VOC concentration 0.6, N 5
  dose-response, AVERAGE response: 0.09494
Drosophila OR13a; the 12th table, VOC concentration 1.25
  dose-response, response per biological replicate: 0.2071 and 0.2793 and 0.1886 and 0.3516
Drosophila OR13a; the 12th table, VOC concentration 1.25, N 4
  dose-response, AVERAGE response: 0.2566
Drosophila OR13a; the 12th table, VOC concentration 2.5
  dose-response, response per biological replicate: 0.2646 and 0.1888 and 0.4175 and 0.197 and 0.3823
Drosophila OR13a; the 12th table, VOC concentration 2.5, N 5
  dose-response, AVERAGE response: 0.2901
Drosophila OR13a; the 12th table, VOC concentration 5
  dose-response, response per biological replicate: 0.42 and 0.3195 and 0.4159 and 0.2978 and 0.4731
Drosophila OR13a; the 12th table, VOC concentration 5, N 5
  dose-response, AVERAGE response: 0.3853
Drosophila OR13a; the 12th table, VOC concentration 10
  dose-response, response per biological replicate: 0.4322 and 0.4316 and 0.4215 and 0.2626 and 0.4446
Drosophila OR13a; the 12th table, VOC concentration 10, N 5
  dose-response, AVERAGE response: 0.3985
Drosophila OR13a; the 12th table, VOC concentration 20
  dose-response, response per biological replicate: 0.4616 and 0.4143 and 0.5545 and 0.335 and 0.5659
Drosophila OR13a; the 12th table, VOC concentration 20, N 5
  dose-response, AVERAGE response: 0.4662
Drosophila OR13a; the 12th table, VOC concentration 40
  dose-response, response per biological replicate: 0.4507 and 0.4868 and 0.5125 and 0.286 and 0.5426
Drosophila OR13a; the 12th table, VOC concentration 40, N 5
  dose-response, AVERAGE response: 0.4557
Drosophila OR13a; the 12th table, VOC concentration 60
  dose-response, response per biological replicate: 0.3021 and 0.4978 and 0.4725 and 0.5843
Drosophila OR13a; the 12th table, VOC concentration 60, N 4
  dose-response, AVERAGE response: 0.4642
Drosophila OR13a; the 12th table, VOC concentration 80
  dose-response, response per biological replicate: 0.4797 and 0.3236 and 0.407 and 0.4017 and 0.4897
Drosophila OR13a; the 12th table, VOC concentration 80, N 5
  dose-response, AVERAGE response: 0.4203
Drosophila OR13a; the 12th table, VOC concentration 100
  dose-response, response per biological replicate: 0.3778 and 0.3442 and 0.2898 and 0.4501
Drosophila OR13a; the 12th table, VOC concentration 100, N 4
  dose-response, AVERAGE response: 0.3654
Drosophila OR13a; the 12th table, average of replicate fits, N 5
  AVERAGE MAX: 0.459
Drosophila OR13a; the 12th table, fit to the average curve, n 0.854956
  MAX, fitted average curve: 0.4618
Drosophila OR13a; the 12th table, individual replicate fits
  MAX, fitted parameter per biological replicate: 0.5125 and 0.4135 and 0.4717 and 0.37 and 0.5273

## CC(C)=CCC/C(C)=C/CC/C(C)=C/CO [e,e-farnesol]
Drosophila OR49b; odorant cc. 1 µM
  Average response: 0.00
Drosophila OR49b; odorant cc. 10 µM
  Average response: 0.06
Drosophila OR49b; odorant cc. 100 µM
  Average response: 0.00
Drosophila OR49b; VOC concentration 1 μM
  OR49b response (VUAA1-normalized response): 0.00
Drosophila OR49b; VOC concentration 10 μM
  OR49b response (VUAA1-normalized response): 0.06
Drosophila OR49b; VOC concentration 100 μM
  OR49b response (VUAA1-normalized response): 0.00
Drosophila OR49b; [1]
  DF norm AVERAGE OR49b: 0
Drosophila OR49b; [2]
  DF norm AVERAGE OR49b: 0.06141
Drosophila OR49b; [3]
  DF norm AVERAGE OR49b: 0
Drosophila OR13a; 1 μM VOC, 50 μM VUAA1 = 1, responses not exceeding 0.05 considered 0
  OR13a Average response (VUAA1-normalized): 0.00
Drosophila OR13a; 10 μM VOC, 50 μM VUAA1 = 1, responses not exceeding 0.05 considered 0
  OR13a Average response (VUAA1-normalized): 0.033
Drosophila OR13a; 100 μM VOC, 50 μM VUAA1 = 1, responses not exceeding 0.05 considered 0
  OR13a Average response (VUAA1-normalized): 0.026
Drosophila OR13a; VOC concentration 1 μM
  OR13a response (VUAA1-normalized response): 0.00
Drosophila OR13a; VOC concentration 10 μM
  OR13a response (VUAA1-normalized response): 0.00
Drosophila OR13a; VOC concentration 100 μM
  OR13a response (VUAA1-normalized response): 0.00
Drosophila OR13a; [1]
  DF norm AVERAGE OR13a: 0
Drosophila OR13a; [2]
  DF norm AVERAGE OR13a: 0
Drosophila OR13a; [3]
  DF norm AVERAGE OR13a: 0
